The values below come from patent US20230240297A1, “SELECTIVE HERBICIDES BASED ON SUBSTITUTED ISOXAZOLIN CARBOXAMIDES AND CYPROSULFAMIDE” (Bayer Aktiengesellschaft, priority 2020, published 2023).

What all share (assay type): in vivo, maize
The test system of data set [1] is ZEAMA Sileno. Put plainly: Seed treatment with safener; post-emergence herbicide application. Further details: Reduction [Difference]: scale not given here. The note with it: Final assessment; for Reduction [%] / Reduction [Difference]: Cyprosulfamide 0.5 g a.i./kg seed; for Reduction [Difference]: damage without safener - damage with safener; for HER effect + SAF (crop damage with safener): Cyprosulfamide seed treatment 0.5 g a.i./kg seed; for HER effect (crop damage, herbicide without safener): no safener. The method, boiled down:
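Maize seeds slurry-coated with WP safener (g a.i./kg seed) or left untreated, sown in sandy loam and grown in greenhouse. WP herbicide sprayed post-emergence at BBCH11-13 in 300 l/ha water with wetting agent and adjuvants (e.g. Mero 1.5 l/ha, ammonium sulphate 2 kg/ha); means of at least 2 replicates.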

For data set [2], the system named is ZEAMA Sileno. Description: Seed treatment with safener; pre-emergence herbicide application. The note with it: 26 DAT; for Reduction [%] / Reduction [Difference]: cyprosulfamide 0.25 g a.i./kg seed; for HER effect + SAF: cyprosulfamide seed treatment 0.25 g a.i./kg seed; for HER effect: no safener. The protocol: For the safener seed treatment, sufficient seeds of the respective crops (spring wheat, TRZAS; spring barley, HORVS; maize, ZEAMA) were weighed into screw top glass bottles approximately twice the volume of the seeds.
The specified safeners, formulated as wettable powder (WP) were weighed out so that the specified rates (g a.i./kg seed) would be obtained, dissolved in water (1 ml water per 10 g of seeds), and added to the seeds to produce a slurry.
The bottles were capped and then placed in an overhead shaker (set at medium speed for ca. 60 minutes) so that the seeds were evenly coated with the slurry. The bottles were uncapped and the seeds were either placed on paper and dried for an interval of 3-4 hours prior to sowing, or directly sown. Seeds were placed in sandy loam soil in pots of a diameter of 7-8 cm, and covered with soil.
Pre-emergence application of the specified herbicides was done subsequently, on two sets of plants: • a) seed treatment with safener, as described above • b) no safener treatment
The herbicides were formulated as WP and was sprayed onto the soil surface as an aqueous suspension at an equivalent water application rate of 300 1/ha.
After application, the test plants were kept in the greenhouse under good growth conditions. At intervals up to 4 weeks after application (=28 days after treatment; DAT), % crop damage observed on the treated plants was scored visually in comparison to control plants that had not received any safener or herbicide treatment.
Values in the table below are mean values of at least 2 replicates.

Data set [3] has as its system ZEAMA Sileno. Put plainly: Tank-mix; post-emergence, crop damage with and without safener. The settings on record: for HER effect + SAF / HER effect: Final assessment; for HER effect: no safener. The essentials: (§1)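 Crops in sandy loam in the greenhouse were sprayed at the 1–3-leaf stage, 2–3 weeks after sowing, with herbicide/safener combinations or the single actives at various dosages in 300 l/ha water. Injury was scored visually 1–3 weeks after treatment as % versus untreated plants (0% none, 100% complete kill).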

Data set [4] concerns ZEAMA Sileno. Description: Treatment 1 day before (safener applied one day before herbicide, post-emergence). The note with it: for Reduction [%] / Reduction [Difference]: cyprosulfamide 100 g a.i./ha 1 day before; for HER effect + SAF: cyprosulfamide 100 g a.i./ha applied 1 day before; for HER effect + SAF / HER effect: Final assessment; for HER effect: no safener. Further details: key to Reduction [Difference]: percentage points of visually scored % crop damage vs untreated control. An excerpt:
Seeds of crops (spring wheat, TRZAS; spring barley, HORVS; maize, ZEAMA) were placed in sandy loam soil in pots of a diameter of 7-8 cm, covered with soil, and cultivated in a greenhouse under good growth conditions until plants were at the 1-3 leaf stage (BBCH 11-13). For split safener and herbicide treatment, first the safener was applied followed by the herbicide treatment on the following day. The safener and herbicides were formulated as WP and sprayed onto the green parts of the plants as an aqueous suspension at an equivalent water application rate of 300 1/ha, with addition of wetting agent and adjuvants (e.g. Mero, 1.5 1/ha; ammonium sulphate, 2 kg/ha). An equivalent set of plants was treated with the herbicides but without the prior safener treatment.
After application, the test plants were kept in the greenhouse under good growth conditions. 10 and 21 days after treatment (DAT) with the herbicide, % crop damage observed on the treated plants was scored visually in comparison to control plants that had not received any safener or herbicide treatment.

In data set [5] the test system is ZEAMA Abraxas. Put plainly: Tank-mix; post-emergence, crop damage with and without safener. The settings on record: for Reduction [%] / Reduction [Difference]: HER 2 g a.i./ha, cyprosulfamide 50 g a.i./ha; for HER effect + SAF: HER dose 2 g a.i./ha + cyprosulfamide 50 g a.i./ha tank-mix; for HER effect + SAF / HER effect: Final assessment; for HER effect: HER dose 2 g a.i./ha, no safener. The method, boiled down: as §1

The mark [6] stands for this setting: HER dose 40 g a.i./ha pre-emergence.
Where [7] appears, read: HER dose 80 g a.i./ha pre-emergence.
Setting [8] is: HER 8 g a.i./ha, cyprosulfamide 50 g a.i./ha.
[9] abbreviates: HER 32 g a.i./ha, cyprosulfamide 100 g a.i./ha.

As to `C=CC1(C(=O)NC2C=CC(C(=O)OC)C2)CC(c2cc(F)cc(F)c2)=NO1` (stereo not drawn) [Example 1.26], the “Reduction [%]” value in data set [1] (HER dose 8 g a.i./ha) came to 74%; in data set [1] (HER dose 32 g a.i./ha), 71%; in data set [2] (HER 40 g a.i./ha), 70%; in data set [2] (HER 80 g a.i./ha) it was 57%; in data set [3] (setting [8]), 70%; in data set [3] (setting [9]), 71%. Moreover, the “Reduction [Difference]” value in data set [1] (HER dose 8 g a.i./ha) came to 42; in data set [1] (HER dose 32 g a.i./ha), 67; in data set [2] (HER 40 g a.i./ha) it was 35; in data set [2] (HER 80 g a.i./ha), 40; in data set [3] (setting [8]), 40; in data set [3] (setting [9]), 67. For the same compound, the entries for the “HER effect + SAF (crop damage with safener)” value in data set [1] (HER dose 8 g a.i./ha) and in data set [1] (HER dose 32 g a.i./ha) were 15% and 27%, respectively. The entries for the “HER effect (crop damage, herbicide without safener)” value in data set [1] (HER dose 8 g a.i./ha) and in data set [1] (HER dose 32 g a.i./ha) were 57% and 94%, respectively. In addition, the “HER effect + SAF” value was 15% in data set [2] (setting [6]), 30% in data set [2] (setting [7]), 17% in data set [3] (HER dose 8 g a.i./ha + cyprosulfamide 50 g a.i./ha tank-mix) and 27% in data set [3] (HER dose 32 g a.i./ha + cyprosulfamide 100 g a.i./ha tank-mix). For the same compound, the HER effect in data set [2] (setting [6]) is listed as 50%; in data set [2] (setting [7]) it was 70%; in data set [3] (HER dose 8 g a.i./ha), 57%; in data set [3] (HER dose 32 g a.i./ha), 94%.

For the compound `COC(=O)C1C=CC(NC(=O)C2(C)CC(c3cc(F)cc(F)c3)=NO2)C1` (stereo not drawn) [Example 1.19], in data set [1] (HER dose 8 g a.i./ha), the “Reduction [%]” value amounted to 75%; the “Reduction [Difference]” value worked out at 30; the “HER effect + SAF (crop damage with safener)” value is 10%; the “HER effect (crop damage, herbicide without safener)” value was found to be 40%. Also, in data set [1] (HER dose 32 g a.i./ha), the “Reduction [%]” value came out at 75%; the “Reduction [Difference]” value is 60; the “HER effect + SAF (crop damage with safener)” value amounted to 20%; the “HER effect (crop damage, herbicide without safener)” value was 80%. Besides, in data set [4] (HER 32 g a.i./ha), the “Reduction [%]” value amounted to 88% and the “Reduction [Difference]” value worked out at 70. Also, in data set [4] (HER dose 32 g a.i./ha), the “HER effect + SAF” value is reported as 10% and the HER effect was 80%. Moreover, in data set [5], the “Reduction [%]” value is 80%, the “Reduction [Difference]” value is recorded as 60, the “HER effect + SAF” value stood at 15% and the HER effect is 75%.

With `CC1(C(=O)NC2C=CC(C(=O)OCCSC(F)(F)F)C2)CC(c2cc(F)cc(F)c2)=NO1` (stereo not drawn) [Example 1.38], the “Reduction [%]” value in data set [1] (HER dose 2 g a.i./ha) is recorded as 100%; in data set [1] (HER dose 8 g a.i./ha), 100%; in data set [1] (HER dose 32 g a.i./ha), 100%; in data set [4] (HER 32 g a.i./ha) it was 73%; in data set [5] it was 42%. The “Reduction [Difference]” value came out at 25 in data set [1] (HER dose 2 g a.i./ha); 35 in data set [1] (HER dose 8 g a.i./ha); 75 in data set [1] (HER dose 32 g a.i./ha); 55 in data set [4] (HER 32 g a.i./ha); 25 in data set [5]. Besides, the “HER effect + SAF (crop damage with safener)” value in data set [1] (HER dose 2 g a.i./ha), in data set [1] (HER dose 8 g a.i./ha) and in data set [1] (HER dose 32 g a.i./ha) was 0% throughout. In addition, the results for the “HER effect (crop damage, herbicide without safener)” value in data set [1] (HER dose 2 g a.i./ha), in data set [1] (HER dose 8 g a.i./ha) and in data set [1] (HER dose 32 g a.i./ha) were 25%, 35% and 75%, respectively. In addition, the “HER effect + SAF” value in data set [4] (HER dose 32 g a.i./ha) amounted to 20%; in data set [5], 35%. In addition, the HER effect amounted to 75% in data set [4] (HER dose 32 g a.i./ha) and 60% in data set [5].

With `CCCSCCOC(=O)C1C=CC(NC(=O)C2(C)CC(c3cc(F)cc(F)c3)=NO2)C1` (stereo not drawn) [Example 1.34], the “Reduction [%]” value in data set [1] (HER dose 2 g a.i./ha) was found to be 100%; in data set [1] (HER dose 8 g a.i./ha) it was 80%; in data set [1] (HER dose 32 g a.i./ha) it was 78%; in data set [4] (HER 8 g a.i./ha), 60%; in data set [4] (HER 32 g a.i./ha), 44%; in data set [5], 50%. Moreover, the “Reduction [Difference]” value in data set [1] (HER dose 2 g a.i./ha) was 20; in data set [1] (HER dose 8 g a.i./ha), 40; in data set [1] (HER dose 32 g a.i./ha), 35; in data set [4] (HER 8 g a.i./ha), 30; in data set [4] (HER 32 g a.i./ha), 20; in data set [5], 25. Moreover, the “HER effect + SAF (crop damage with safener)” value in data set [1] (HER dose 2 g a.i./ha) worked out at 0%; in data set [1] (HER dose 8 g a.i./ha), 10%; in data set [1] (HER dose 32 g a.i./ha) it was 10%. The “HER effect (crop damage, herbicide without safener)” value in data set [1] (HER dose 2 g a.i./ha) was 20%; in data set [1] (HER dose 8 g a.i./ha) it was 50%; in data set [1] (HER dose 32 g a.i./ha), 45%. The “HER effect + SAF” value in data set [4] (HER dose 8 g a.i./ha) is reported as 20%; in data set [4] (HER dose 32 g a.i./ha) it was 25%; in data set [5] it was 25%. Besides, the HER effect stood at 50% in data set [4] (HER dose 8 g a.i./ha), 45% in data set [4] (HER dose 32 g a.i./ha) and 50% in data set [5].
